In US7326732B2, “EP2 receptor agonists” (Pharmagene Laboratories Limited, priority 2004, dated 2008):

What was measured:
human EP2 receptor = biological target: T1, human EP2 receptor (Homo sapiens, UniProt P43116); assay: Binding ability to human EP receptors ([3H]PGE2 displacement), EP2; conditions: membranes expressing human EP2; [3H]PGE2 3 nM; Cheng-Prusoff; read-out: pKi (M) EP2 (converted)
T1 construct: expressed in transfected cells
Summary of the method: (§1)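 Membranes from cells stably expressing human EP2, EP3 or EP4 incubated to equilibrium with [3H]PGE2 and compound at 0.1 to 10 000 nM. Non-specific binding defined with 10 uM PGE2; bound label separated by vacuum filtration and quantified by scintillation counting.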

[1] = biological target: T2, human EP2 prostanoid receptors (Homo sapiens, UniProt P43116); assay: Agonist activity at recombinant human EP2 prostanoid receptors (cAMP in HEK-293 clones); format: cell-based; conditions: for EC50: HEK-293 stably transfected with human EP2, cAMP accumulation, read-out: pEC50 EP2 (converted); for activity (EP2 part): functional classification at EP2
T2 construct: expressed in transfected cells; host or cells: HEK-293
T2 sequence (P43116 whole entry): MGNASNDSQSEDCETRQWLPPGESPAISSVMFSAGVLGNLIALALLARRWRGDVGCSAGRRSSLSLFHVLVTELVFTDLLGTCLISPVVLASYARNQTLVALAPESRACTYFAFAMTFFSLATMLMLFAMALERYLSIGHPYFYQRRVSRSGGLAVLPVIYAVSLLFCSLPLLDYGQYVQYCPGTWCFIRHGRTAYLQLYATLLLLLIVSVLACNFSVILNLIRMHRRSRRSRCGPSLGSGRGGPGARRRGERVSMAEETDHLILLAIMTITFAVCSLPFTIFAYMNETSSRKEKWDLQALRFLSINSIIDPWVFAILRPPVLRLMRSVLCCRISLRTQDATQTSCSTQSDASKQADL

[2] = biological target: T3, human EP4 prostanoid receptors (Homo sapiens, UniProt P35408); assay: Antagonist activity at EP4 prostanoid receptors (PGE2-stimulated cAMP in HEK-293 clones); format: cell-based; conditions: for Kb: HEK-293 stably transfected with human EP4, 30 min pre-incubation before PGE2, Gaddum-Schild, slope of unity, read-out: pA2 EP4 (converted); for activity (EP4 part): functional classification at EP4, second line of the activity cell
T3 construct: expressed in transfected cells; host or cells: HEK-293
T3 sequence (P35408 whole entry): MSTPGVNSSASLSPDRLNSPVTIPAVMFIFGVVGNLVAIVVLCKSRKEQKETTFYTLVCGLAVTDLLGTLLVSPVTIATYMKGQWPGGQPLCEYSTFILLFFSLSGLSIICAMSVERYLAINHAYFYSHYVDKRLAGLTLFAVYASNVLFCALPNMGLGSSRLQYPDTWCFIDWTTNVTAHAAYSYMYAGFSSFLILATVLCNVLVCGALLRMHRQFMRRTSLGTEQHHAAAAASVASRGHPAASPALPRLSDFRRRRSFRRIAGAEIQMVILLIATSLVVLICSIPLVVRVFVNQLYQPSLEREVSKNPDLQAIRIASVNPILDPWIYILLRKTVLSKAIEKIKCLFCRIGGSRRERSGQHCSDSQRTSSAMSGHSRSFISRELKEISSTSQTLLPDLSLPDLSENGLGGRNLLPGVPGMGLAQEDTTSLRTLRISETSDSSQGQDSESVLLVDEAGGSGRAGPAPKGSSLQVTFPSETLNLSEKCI
Protocol: Culture media was Minimal essential media (MEM), supplemented with 10% foetal bovine serum, 100 U/ml penicillin, […] streptomycin, 2.5 μg/ml fungizone, 2mM glutamine. Cells were cultured to confluency (3-4 days) prior to use. Culture media was removed, and confluent cells washed three times in MEM. […] Cells were then stimulated by the addition of 25 μl of PGE2 or agonists prepared in assay buffer. In antagonist studies, cells were pre-incubated with compounds for 30 minutes prior to PGE2-mediated stimulation Plates were incubated for 15 min at 37° C., before termination of the reaction by the addition of 25 μl 1M HCl. The plate was then frozen at -20° C. overnight before determination of cAMP concentration. Stimulated cAMP levels were determined by radioligand displacement binding. In brief, plates were thawed rapidly in a waterbath, and the samples neutralised by the addition of 25 μl 1M NaOH. 30 μl was transferred to Millipore plates pre-coated with 0.5% Polyethylenimine (PEI). Samples were diluted by addition of 90 μl cAMP determination buffer (50 mM Tris, 5 mM EDTA, pH 7.0). […] 15 μl of 2 nM (final concentration) [^3H] cAMP, and 15 μl of 3'5'-cAMP protein kinase (8 μg/well final concentration) prepared in cAMP determination buffer containing 0.1% BSA, were added to each well. Plates were incubated on ice for 2 hours, before bound and free radiolabel were separated by vacuum filtration harvesting using the Millipore vacuum manifold, using ice cold water as the termination buffer. The sealing mat was removed from the Millipore plates, and the filters allowed to dry overnight. 50 μl Microscint 0 (Packard Bioscience) was added to each well, and the plate counted using the Micro-Beta Trilux topcount ^3H program. cAMP accumulation was determined from the standard curve, and values calculated in pmoles cAMP/well. Antagonists affinities (pA2 values) were determined assuming a slope of unity and the […]-Schild equation, where pA2=log [concentration ratio-1]-log[antagonist].

human EP4 receptor = biological target: T4, human EP4 receptor (Homo sapiens, UniProt P35408); assay: Binding ability to human EP receptors ([3H]PGE2 displacement), EP4; conditions: membranes expressing human EP4; [3H]PGE2 1 nM; Cheng-Prusoff; read-out: pKi (M) EP4 (converted)
T4 construct: expressed in transfected cells
T4 sequence (P35408 whole entry): as above
Summary of the method: as §1

human EP3 receptor = biological target: T5, human EP3 receptor (Homo sapiens, UniProt P43115); assay: Binding ability to human EP receptors ([3H]PGE2 displacement), EP3; conditions: membranes expressing human EP3; [3H]PGE2 2.5 nM; Cheng-Prusoff; read-out: pKi (M) EP3 (converted)
T5 construct: expressed in transfected cells
T5 sequence (P43115 1-390): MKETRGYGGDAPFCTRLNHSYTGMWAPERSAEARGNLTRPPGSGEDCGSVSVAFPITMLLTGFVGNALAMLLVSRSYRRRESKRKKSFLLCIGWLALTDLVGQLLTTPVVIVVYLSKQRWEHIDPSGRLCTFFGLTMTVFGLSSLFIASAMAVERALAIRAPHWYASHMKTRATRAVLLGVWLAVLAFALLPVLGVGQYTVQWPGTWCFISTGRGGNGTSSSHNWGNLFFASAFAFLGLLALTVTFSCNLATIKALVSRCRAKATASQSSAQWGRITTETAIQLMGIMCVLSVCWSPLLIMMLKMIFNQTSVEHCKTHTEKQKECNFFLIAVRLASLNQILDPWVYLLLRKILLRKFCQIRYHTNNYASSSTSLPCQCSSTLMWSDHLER
Summary of the method: as §1

T1 sequence (P43116 whole entry): as the sequence (P43116 whole entry) above

Ki (human EP2 receptor) [M] | EC50 [1] [nM] | activity (EP2 part) [1] | Kb [2] [nM] | activity (EP4 part) [2] | Ki (human EP4 receptor) [M] | Ki (human EP3 receptor) [M] | Structure (SMILES)
< 1e-06 | < 1000 | EP2 agonist/ | < 1000 | EP4 antagonist | < 1e-05 | > 1e-05 | O=C(O)c1cc2cc(NC(=O)c3ccc(-c4cccc(Cl)c4)o3)ccc2[nH]1 [Compound 72, 5-{[5-(3-Chloro-phenyl)-furan-2-carbonyl]-amino}-1H-indole-2-carboxylic acid]
< 1e-07 | < 100 | EP2 Agonist/ | < 10000 | EP4 Antagonist | < 1e-05 | > 1e-05 | O=C(O)CCc1cccc(NC(=O)c2ccc(-c3cccc(Cl)c3)o2)c1 [Compound 125, 3-(3-{[5-(3-Chloro-phenyl)-furan-2-carbonyl]-amino}-phenyl)-propionic acid]
< 1e-07 | < 100 | EP2 Agonist/ | < 1000 | EP4 Antagonist | < 1e-06 | > 1e-05 | O=C(O)CCc1cccc(NC(=O)c2ccc(-c3cc(Cl)cc(Cl)c3)o2)c1 [Compound 126, 3-(3-{[5-(3,5-Dichloro-phenyl)-furan-2-carbonyl]-amino}-phenyl)-propionic acid]
< 1e-07 | < 100 | EP2 Agonist/ | < 1000 | EP4 Antagonist | < 1e-06 | > 1e-05 | O=C(O)Cc1cccc(NC(=O)c2cccc(-c3cccc(Cl)c3)n2)c1 [Compound 129, (3-{[6-(3-Chloro-phenyl)-pyridine-2-carbonyl]-amino}-phenyl)-acetic acid]
< 1e-07 | < 100 | EP2 Agonist/ | < 1000 | EP4 Antagonist | < 1e-06 | > 1e-05 | O=C(O)Cc1cccc(NC(=O)c2cccc(-c3cc(Cl)cc(Cl)c3)n2)c1 [Compound 130, (3-{[6-(3,5-Dichloro-phenyl)-pyridine-2-carbonyl]-amino}-phenyl)-acetic acid]
< 1e-07 | < 100 | EP2 Agonist/ | < 100 | EP4 Agonist | < 1e-06 | > 1e-05 | O=C(O)COc1cccc(NC(=O)c2cccc(-c3cc(Cl)cc(Cl)c3)n2)c1 [Compound 133, (3-{[6-(3,5-Dichloro-phenyl)-pyridine-2-carbonyl]-amino}-phenoxy)-acetic acid]
< 1e-07 | < 100 | EP2 Agonist/ | < 1000 | EP4 Agonist | < 1e-07 | > 1e-05 | O=C(O)COc1cccc(NC(=O)c2cccc(-c3cccc(Cl)c3)n2)c1 [Compound 138, (3-{[6-(3-Chloro-phenyl)-pyridine-2-carbonyl]-amino}-phenoxy)-acetic acid]
< 1e-07 | < 100 | EP2 Agonist | < 1000 | – | < 1e-06 | > 1e-05 | O=C(O)/C=C/c1cccc(NC(=O)c2cc(-c3cc(Cl)cc(Cl)c3)ccc2F)c1 [Compound 144, 3-{3-[(3′,5′-Dichloro-4-fluoro-biphenyl-3-carbonyl)-amino]-phenyl}-acrylic acid]
< 1e-07 | < 100 | EP2 Agonist/ | < 1000 | EP4 Agonist | < 1e-07 | > 1e-05 | O=C(O)/C=C/c1cccc(NC(=O)c2cccc(-c3ccccc3)n2)c1 [Compound 178, 3-{3-[(6-Phenyl-pyridine-2-carbonyl)-amino]-phenyl}-acrylic acid]

Second part, the compound before the results:

Structure (SMILES) | Ki (human EP2 receptor) [M] | EC50 [1] [nM] | activity (EP2 part) [1] | Kb [2] [nM] | activity (EP4 part) [2] | Ki (human EP4 receptor) [M] | Ki (human EP3 receptor) [M]
O=C(O)Cc1ccc(NC(=O)c2ccc(-c3ccccc3)o2)cc1 [Compound 2, {4-[(5-Phenyl-furan-2-carbonyl)-amino]-phenyl}-acetic acid] | < 1e-05 | < 10000 | EP2 agonist/ | < 10000 | EP4 antagonist | < 1e-05 | > 1e-05
O=C(O)c1ccc(CNC(=O)c2ccc(-c3ccccc3)o2)cc1 [Compound 4, 4-{[(5-Phenyl-furan-2-carbonyl)-amino]-methyl}-benzoic acid] | < 1e-05 | < 10000 | EP2 agonist/ | < 10000 | EP4 antagonist | < 1e-05 | > 1e-05
O=C(O)Cc1cccc(NC(=O)c2ccc(-c3cc(Cl)cc(Cl)c3)o2)c1 [Compound 26, (3-{[5-(3,5-Dichloro-phenyl)-furan-2-carbonyl]-amino}-phenyl)-acetic acid] | < 1e-07 | < 100 | EP2 agonist/ | < 1000 | EP4 antagonist | < 1e-07 | > 1e-05
O=C(O)/C=C/c1cccc(NC(=O)c2ccc(-c3ccccc3)o2)c1 [Compound 61, 3-{3-[(5-Phenyl-furan-2-carbonyl)-amino]-phenyl}-acrylic acid] | < 1e-07 | < 100 | EP2 agonist/ | < 1000 | EP4 agonist | < 1e-06 | > 1e-05
O=C(O)COc1cccc(NC(=O)c2ccc(-c3cccc(Cl)c3)o2)c1 [Compound 66, (3-{[5-(3-Chloro-phenyl)-furan-2-carbonyl]-amino}-phenoxy)-acetic acid] | < 1e-07 | < 100 | EP2 agonist/ | < 1000 | EP4 agonist | < 1e-06 | > 1e-05
O=C(O)COc1cccc(NC(=O)c2ccc(-c3cc(Cl)cc(Cl)c3)o2)c1 [Compound 68, (3-{[5-(3,5-Dichloro-phenyl)-furan-2-carbonyl]-amino}-phenoxy)-acetic acid] | < 1e-07 | < 100 | EP2 agonist/ | < 1000 | EP4 antagonist | < 1e-06 | > 1e-05
O=C(O)/C=C/c1cccc(NC(=O)c2ccc(-c3cccc(Cl)c3)o2)c1 [Compound 69, 3-(3-{[5-(3-Chloro-phenyl)-furan-2-carbonyl]-amino}-phenyl)-acrylic acid] | < 1e-07 | – | EP2 agonist/ | – | EP4 antagonist | < 1e-06 | > 1e-05
O=C(O)/C=C/c1cccc(NC(=O)c2ccc(-c3cc(Cl)cc(Cl)c3)o2)c1 [Compound 70, 3-(3-{[5-(3,5-Dichloro-phenyl)-furan-2-carbonyl]-amino}-phenyl)-acrylic acid] | < 1e-07 | – | EP2 agonist/ | – | EP4 antagonist | < 1e-06 | > 1e-05
